Patent publication US8030083B2, “Method of analyzing protein structural affinity relationship” (Eisai R & D Management Co., Ltd., priority 2004, dated 2011)

Tests used:
water solubility = format: physicochemical
[1] = target: T1, mitochondrial malate dehydrogenase (mMDH) (Homo sapiens, UniProt P40926); conditions: Knockaert et al.; cited from earlier work
T1 sequence (P40926 25-338): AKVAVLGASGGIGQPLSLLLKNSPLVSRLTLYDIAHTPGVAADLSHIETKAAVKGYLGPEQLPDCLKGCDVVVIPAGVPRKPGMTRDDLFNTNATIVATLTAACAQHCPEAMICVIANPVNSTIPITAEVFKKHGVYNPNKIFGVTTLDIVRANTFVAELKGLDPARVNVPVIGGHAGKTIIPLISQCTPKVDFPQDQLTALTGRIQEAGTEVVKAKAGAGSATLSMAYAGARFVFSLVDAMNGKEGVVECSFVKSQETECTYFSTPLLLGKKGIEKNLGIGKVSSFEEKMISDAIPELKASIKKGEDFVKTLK

CDK = conditions: Knockaert et al.; cited from earlier work

Row | water solubility (water solubility) | SMILES | inhibition of mMDH activity [1] | inhibition of CDK (CDK)
1 | poor in water solubility | NS(=O)(=O)c1ccc(S(=O)(=O)Nc2cccc3c(Cl)c[nH]c23)cc1 [E7070] |  | 
2 |  | O=C1Cc2c([nH]c3ccccc23)-c2ccccc2N1 [paullone] | inhibits mMDH activity with certainty | inhibitor
